Test results published in publication PMC5218480 (PLoS ONE, 2017).

Test system: MV-4-11 cells
Assay: Gene expression microarray analysis (Affymetrix PrimeView) and GSEA
Format: cell-based, human
Parameters: RFU PODN (11730768_x_at) / Fold change /veh PODN (11730768_x_at) / RFU LINC00158 (11744669_a_at) / Fold change /veh LINC00158 (11744669_a_at) / RFU DUSP10 (11751237_a_at) / Fold change /veh DUSP10 (11751237_a_at) / RFU ID3 (11757404_x_at) / Fold change /veh ID3 (11757404_x_at) / RFU PLEKHG5 (11737974_s_at) / Fold change /veh PLEKHG5 (11737974_s_at) / RFU LRRC4B (11730491_at) / Fold change /veh LRRC4B (11730491_at) / RFU GIMAP4 (11747438_a_at) / Fold change /veh GIMAP4 (11747438_a_at) / RFU KRT8 (11758183_x_at) / Fold change /veh KRT8 (11758183_x_at) / RFU CNN1 (11734310_a_at) / Fold change /veh CNN1 (11734310_a_at) / RFU VPS37D (11726825_at) / Fold change /veh VPS37D (11726825_at) / RFU C10orf10 (11716522_x_at) / Fold change /veh C10orf10 (11716522_x_at) / RFU KIR2DL2 /// KIR2DL4 /// KIR2DL5A /// KIR2DL5B /// KIR2DS1 /// KIR2DS2 /// KIR2DS3 /// KIR2DS4 /// KIR3DL3 /// KIR3DL3 /// KIR3DS1 (11738374_at) / Fold change /veh KIR2DL2 /// KIR2DL4 /// KIR2DL5A /// KIR2DL5B /// KIR2DS1 /// KIR2DS2 /// KIR2DS3 /// KIR2DS4 /// KIR3DL3 /// KIR3DL3 /// KIR3DS1 (11738374_at) / RFU C1QL1 (11718748_at) / Fold change /veh C1QL1 (11718748_at) / RFU TMPRSS4 (11747572_a_at) / Fold change /veh TMPRSS4 (11747572_a_at) / RFU HAMP (11756126_x_at) / Fold change /veh HAMP (11756126_x_at) / RFU RNFT2 (11725882_a_at) / Fold change /veh RNFT2 (11725882_a_at) / RFU NR4A2 (11747474_a_at) / Fold change /veh NR4A2 (11747474_a_at) / RFU ABCC12 (11746883_a_at) / Fold change /veh ABCC12 (11746883_a_at) / RFU TMEM136 (11760407_x_at) / Fold change /veh TMEM136 (11760407_x_at) / RFU CLDN22 /// WWC2 (11732394_at) / Fold change /veh CLDN22 /// WWC2 (11732394_at) / RFU HLA-DPB1 (11760878_x_at) / Fold change /veh HLA-DPB1 (11760878_x_at) / RFU SPINT1 (11716480_a_at) / Fold change /veh SPINT1 (11716480_a_at) / RFU GAP43 (11754022_s_at) / Fold change /veh GAP43 (11754022_s_at) / RFU A4GNT (11735810_at) / Fold change /veh A4GNT (11735810_at) / RFU PRB3 (11715151_x_at) / Fold change /veh PRB3 (11715151_x_at) / RFU TUBB4B (11761932_at) / Fold change /veh TUBB4B (11761932_at) / RFU CAPN14 (11732068_a_at) / Fold change /veh CAPN14 (11732068_a_at) / RFU TMCC2 (11721928_a_at) / Fold change /veh TMCC2 (11721928_a_at) / RFU IRGQ (11745062_a_at) / Fold change /veh IRGQ (11745062_a_at) / RFU FAM174B (11720279_a_at) / Fold change /veh FAM174B (11720279_a_at) / RFU TMPRSS4 (11748680_a_at) / Fold change /veh TMPRSS4 (11748680_a_at) / RFU FAM212B (11763350_a_at) / Fold change /veh FAM212B (11763350_a_at) / RFU PLEKHG5 (11743358_a_at) / Fold change /veh PLEKHG5 (11743358_a_at) / RFU ZSCAN30 (11745921_a_at) / Fold change /veh ZSCAN30 (11745921_a_at) / RFU CMKLR1 (11741424_a_at) / Fold change /veh CMKLR1 (11741424_a_at) / RFU LOC101060620 /// MAPK8IP1 (11723275_at) / Fold change /veh LOC101060620 /// MAPK8IP1 (11723275_at) / RFU SPTSSB (11747773_x_at) / Fold change /veh SPTSSB (11747773_x_at) / RFU PRSS12 (11739890_at) / Fold change /veh PRSS12 (11739890_at) / RFU BIN1 (11741810_x_at) / Fold change /veh BIN1 (11741810_x_at) / RFU WNT11 (11732464_a_at) / Fold change /veh WNT11 (11732464_a_at) / RFU C10orf10 (11716521_a_at) / Fold change /veh C10orf10 (11716521_a_at) / RFU C5orf56 (11738089_at) / Fold change /veh C5orf56 (11738089_at) / RFU CYB561 (11721691_x_at) / Fold change /veh CYB561 (11721691_x_at) / RFU ANKRD19P (11752326_a_at) / Fold change /veh ANKRD19P (11752326_a_at) / RFU OR2T12 /// OR2T33 /// OR2T8 (11738714_s_at) / Fold change /veh OR2T12 /// OR2T33 /// OR2T8 (11738714_s_at) / RFU VCAN (11748164_a_at) / Fold change /veh VCAN (11748164_a_at) / RFU JSRP1 (11732532_at) / Fold change /veh JSRP1 (11732532_at) / RFU KRTAP10-11 (11738290_x_at) / Fold change /veh KRTAP10-11 (11738290_x_at) / RFU MYO3A (11730013_a_at) / Fold change /veh MYO3A (11730013_a_at) / RFU EBF3 (11725865_a_at) / Fold change /veh EBF3 (11725865_a_at) / RFU CAMK2N1 (11719241_x_at) / Fold change /veh CAMK2N1 (11719241_x_at) / RFU C5orf56 (11738088_a_at) / Fold change /veh C5orf56 (11738088_a_at) / RFU OLFML3 (11715873_a_at) / Fold change /veh OLFML3 (11715873_a_at) / RFU LOC100653217 /// NTM (11731650_a_at) / Fold change /veh LOC100653217 /// NTM (11731650_a_at) / RFU MAPK11 (11762145_a_at) / Fold change /veh MAPK11 (11762145_a_at) / RFU FIZ1 (11724087_x_at) / Fold change /veh FIZ1 (11724087_x_at) / RFU OASL (11726364_x_at) / Fold change /veh OASL (11726364_x_at) / RFU SOX15 (11748057_x_at) / Fold change /veh SOX15 (11748057_x_at) / RFU CD79A (11719716_a_at) / Fold change /veh CD79A (11719716_a_at) / RFU HIST1H1D (11736915_at) / Fold change /veh HIST1H1D (11736915_at) / RFU CASKIN2 (11723855_a_at) / Fold change /veh CASKIN2 (11723855_a_at) / RFU LOC730098 (11760151_x_at) / Fold change /veh LOC730098 (11760151_x_at) / RFU OR4N2 (11742367_at) / Fold change /veh OR4N2 (11742367_at) / RFU PRRT2 (11749266_a_at) / Fold change /veh PRRT2 (11749266_a_at) / RFU SNX32 (11753110_a_at) / Fold change /veh SNX32 (11753110_a_at) / RFU CDHR5 (11726645_a_at) / Fold change /veh CDHR5 (11726645_a_at) / RFU RCAN1 (11760418_a_at) / Fold change /veh RCAN1 (11760418_a_at) / RFU FAM167A (11723789_a_at) / Fold change /veh FAM167A (11723789_a_at) / RFU FAM26E (11764081_at) / Fold change /veh FAM26E (11764081_at) / RFU ISYNA1 (11749810_s_at) / Fold change /veh ISYNA1 (11749810_s_at) / RFU ACY1 (11761880_at) / Fold change /veh ACY1 (11761880_at) / RFU 11764098_at / Fold change /veh 11764098_at / RFU SAMD14 (11745864_x_at) / Fold change /veh SAMD14 (11745864_x_at) / RFU NPB (11741838_a_at) / Fold change /veh NPB (11741838_a_at) / RFU TMPRSS6 (11731388_a_at) / Fold change /veh TMPRSS6 (11731388_a_at) / RFU KRTAP10-2 (11738614_at) / Fold change /veh KRTAP10-2 (11738614_at) / RFU ARHGAP8 /// PRR5-ARHGAP8 (11727945_x_at) / Fold change /veh ARHGAP8 /// PRR5-ARHGAP8 (11727945_x_at) / RFU KRTAP5-7 /// NADSYN1 (11734609_at) / Fold change /veh KRTAP5-7 /// NADSYN1 (11734609_at) / RFU RASL12 (11751679_a_at) / Fold change /veh RASL12 (11751679_a_at) / RFU CDKN2B (11736163_a_at) / Fold change /veh CDKN2B (11736163_a_at) / RFU PRF1 (11729649_at) / Fold change /veh PRF1 (11729649_at) / RFU, ZNF638 /// ZNF638-IT1 / Fold change vs veh, ZNF638 /// ZNF638-IT1 / RFU, PANK3 / Fold change vs veh, PANK3 / RFU, SH3YL1 / Fold change vs veh, SH3YL1 / RFU, ZEB2 / Fold change vs veh, ZEB2 / RFU, NRIP1 / Fold change vs veh, NRIP1 / RFU, PTTG1IP / Fold change vs veh, PTTG1IP / RFU, CAPN2 / Fold change vs veh, CAPN2 / RFU, MED14 / Fold change vs veh, MED14 / RFU, SNORA58 / Fold change vs veh, SNORA58 / RFU, C1orf63 / Fold change vs veh, C1orf63 / RFU, LRRFIP1 / Fold change vs veh, LRRFIP1 / RFU, NDUFAF7 / Fold change vs veh, NDUFAF7 / RFU, SLC12A2 / Fold change vs veh, SLC12A2 / RFU, IBTK / Fold change vs veh, IBTK / RFU, ESF1 / Fold change vs veh, ESF1 / Fold change vs veh, TMEM50B / RFU, TAOK1 / Fold change vs veh, TAOK1 / RFU, ACBD3 / Fold change vs veh, ACBD3 / RFU, TMA16 / Fold change vs veh, TMA16 / RFU, RWDD3 / Fold change vs veh, RWDD3 / RFU, BCAT1 / Fold change vs veh, BCAT1 / RFU, EDEM3 / Fold change vs veh, EDEM3 / RFU, TMEM33 / Fold change vs veh, TMEM33 / RFU, WDR75 / Fold change vs veh, WDR75 / RFU, AHCTF1 / Fold change vs veh, AHCTF1 / RFU, TFRC / Fold change vs veh, TFRC / RFU, ZDHHC17 / Fold change vs veh, ZDHHC17 / RFU, NOM1 / Fold change vs veh, NOM1 / RFU, ARL8B / Fold change vs veh, ARL8B / RFU, ZBTB11 / Fold change vs veh, ZBTB11 / RFU, TAMM41 / Fold change vs veh, TAMM41 / RFU, KIAA1704 /// LOC100996395 / Fold change vs veh, KIAA1704 /// LOC100996395 / RFU, ING1 / Fold change vs veh, ING1 / RFU, TRMT61B / Fold change vs veh, TRMT61B / RFU, FUBP3 / Fold change vs veh, FUBP3 / RFU, TP53 / Fold change vs veh, TP53 / RFU, TNKS2 / Fold change vs veh, TNKS2 / RFU, ZFP14 / Fold change vs veh, ZFP14 / RFU, ACTR2 / Fold change vs veh, ACTR2 / RFU, PPP3R1 / Fold change vs veh, PPP3R1 / RFU, PIK3R1 / Fold change vs veh, PIK3R1 / RFU, HNRNPA1 / Fold change vs veh, HNRNPA1 / RFU, RNF170 / Fold change vs veh, RNF170 / RFU, ZNF28 / Fold change vs veh, ZNF28 / RFU, RNGTT / Fold change vs veh, RNGTT / RFU, OGT / Fold change vs veh, OGT / RFU, BRD1 / Fold change vs veh, BRD1 / RFU, MARS / Fold change vs veh, MARS / RFU, ZNF655 / Fold change vs veh, ZNF655 / RFU, FAHD1 / Fold change vs veh, FAHD1 / RFU, BDP1 / Fold change vs veh, BDP1 / RFU, LRRCC1 / Fold change vs veh, LRRCC1 / RFU, ARID1A / Fold change vs veh, ARID1A / RFU, ZNF146 / Fold change vs veh, ZNF146 / RFU, ZNF330 / Fold change vs veh, ZNF330 / RFU, GPN3 / Fold change vs veh, GPN3 / RFU, C9orf123 / Fold change vs veh, C9orf123 / RFU, N4BP2L2 / Fold change vs veh, N4BP2L2 / RFU, ARFIP1 / Fold change vs veh, ARFIP1 / RFU, FAM179B / Fold change vs veh, FAM179B / RFU, BCL10 / Fold change vs veh, BCL10 / RFU, UHRF1BP1L / Fold change vs veh, UHRF1BP1L / RFU, BET1 / Fold change vs veh, BET1 / RFU, CNOT2 / Fold change vs veh, CNOT2 / RFU, ZNF268 / Fold change vs veh, ZNF268 / Fold change vs veh, ZNF507 / RFU, DGCR2 / Fold change vs veh, DGCR2 / RFU, WDSUB1 / Fold change vs veh, WDSUB1 / Fold change vs veh, HSP90B1 /// MIR3652 / RFU, ADSS / Fold change vs veh, ADSS / RFU, GK / Fold change vs veh, GK / RFU, ZNF148 / Fold change vs veh, ZNF148 / RFU, TAF9 / Fold change vs veh, TAF9 / RFU, SLC1A5 / Fold change vs veh, SLC1A5 / RFU, SLMO2 / Fold change vs veh, SLMO2 / RFU, ABCC4 / Fold change vs veh, ABCC4 / RFU, LOC101060439 /// RAP1B / Fold change vs veh, LOC101060439 /// RAP1B / RFU, RFX7 / Fold change vs veh, RFX7 / RFU, GTPBP10 / Fold change vs veh, GTPBP10 / RFU, CNEP1R1 / Fold change vs veh, CNEP1R1 / RFU, BIVM-ERCC5 /// ERCC5 / Fold change vs veh, BIVM-ERCC5 /// ERCC5 / RFU, ILF3 / Fold change vs veh, ILF3 / RFU 11762660_at / Fold change /veh 11762660_at / RFU VCAN (11757783_s_at) / Fold change /veh VCAN (11757783_s_at) / RFU DDX43 (11728927_at) / Fold change /veh DDX43 (11728927_at) / RFU KRT8 (11758188_x_at) / Fold change /veh KRT8 (11758188_x_at) / RFU NKD1 (11759106_at) / Fold change /veh NKD1 (11759106_at) / RFU SRD5A1 (11742802_a_at) / Fold change /veh SRD5A1 (11742802_a_at) / RFU TPSAB1 /// TPSB2 (11721975_s_at) / Fold change /veh TPSAB1 /// TPSB2 (11721975_s_at) / RFU GSTM3 (11746129_a_at) / Fold change /veh GSTM3 (11746129_a_at) / RFU IL23R (11737362_x_at) / Fold change /veh IL23R (11737362_x_at) / RFU TMEM51 (11727254_a_at) / Fold change /veh TMEM51 (11727254_a_at) / RFU PIWIL2 (11732686_x_at) / Fold change /veh PIWIL2 (11732686_x_at) / RFU ORM1 (11744905_x_at) / Fold change /veh ORM1 (11744905_x_at) / RFU CCDC152 (11743942_at) / Fold change /veh CCDC152 (11743942_at) / RFU ECM1 (11717891_a_at) / Fold change /veh ECM1 (11717891_a_at) / RFU IL23R (11748794_a_at) / Fold change /veh IL23R (11748794_a_at) / RFU TNFAIP8L3 (11732012_x_at) / Fold change /veh TNFAIP8L3 (11732012_x_at) / RFU MBOAT4 (11741988_at) / Fold change /veh MBOAT4 (11741988_at) / RFU 11764193_at / Fold change /veh 11764193_at / RFU TMEM53 (11763286_at) / Fold change /veh TMEM53 (11763286_at) / RFU MAGEB2 (11727129_at) / Fold change /veh MAGEB2 (11727129_at) / RFU TMEM200A (11744735_a_at) / Fold change /veh TMEM200A (11744735_a_at) / RFU CCDC152 (11751479_a_at) / Fold change /veh CCDC152 (11751479_a_at) / RFU FAM211A (11726209_a_at) / Fold change /veh FAM211A (11726209_a_at) / RFU RGS16 (11746705_a_at) / Fold change /veh RGS16 (11746705_a_at) / RFU VCAN (11755009_s_at) / Fold change /veh VCAN (11755009_s_at) / RFU RHOB (11743442_s_at) / Fold change /veh RHOB (11743442_s_at) / RFU RGS16 (11720943_a_at) / Fold change /veh RGS16 (11720943_a_at) / RFU RGS16 (11720944_at) / Fold change /veh RGS16 (11720944_at) / RFU, VPS4B / Fold change vs veh, VPS4B / RFU, CREB1 / Fold change vs veh, CREB1 / RFU, DNAJC13 / Fold change vs veh, DNAJC13 / RFU, GNAQ / Fold change vs veh, GNAQ / RFU, CDK5R1 / Fold change vs veh, CDK5R1 / RFU, ZRANB3 / Fold change vs veh, ZRANB3 / RFU, CUL4A / Fold change vs veh, CUL4A / RFU, CCNY / Fold change vs veh, CCNY / RFU, UFL1 / Fold change vs veh, UFL1 / RFU, COG3 / Fold change vs veh, COG3 / RFU, DIAPH2 / Fold change vs veh, DIAPH2 / RFU, SKA2 / Fold change vs veh, SKA2 / RFU, AFF3 / Fold change vs veh, AFF3 / RFU, LMF1 / Fold change vs veh, LMF1 / RFU, IPO11 / Fold change vs veh, IPO11 / RFU, DFFB / Fold change vs veh, DFFB / RFU, FOXP1 / Fold change vs veh, FOXP1 / RFU, CARD8 / Fold change vs veh, CARD8 / RFU, STRN3 / Fold change vs veh, STRN3 / RFU, ADK / Fold change vs veh, ADK / RFU, RASSF2 / Fold change vs veh, RASSF2 / RFU, WIPF1 / Fold change vs veh, WIPF1 / RFU, LARP1B / Fold change vs veh, LARP1B / RFU, RASA1 / Fold change vs veh, RASA1 / RFU, RB1 / Fold change vs veh, RB1 / RFU, PPFIA1 / Fold change vs veh, PPFIA1 / RFU, MAT2A / Fold change vs veh, MAT2A / RFU, CCT5 / Fold change vs veh, CCT5 / RFU, WDR92 / Fold change vs veh, WDR92 / RFU, CUX1 / Fold change vs veh, CUX1 / RFU, TTC7A / Fold change vs veh, TTC7A / RFU, TMEM135 / Fold change vs veh, TMEM135 / RFU, DEPTOR / Fold change vs veh, DEPTOR / RFU, CPM / Fold change vs veh, CPM / RFU, DNAJB6 / Fold change vs veh, DNAJB6 / RFU, CACNA2D3 / Fold change vs veh, CACNA2D3 / RFU, DTX4 / Fold change vs veh, DTX4 / RFU, TFCP2 / Fold change vs veh, TFCP2 / RFU, GMCL1 /// GMCL1P1 / Fold change vs veh, GMCL1 /// GMCL1P1 / RFU, AEBP2 / Fold change vs veh, AEBP2 / RFU, SNHG1 /// SNORD22 /// SNORD25 /// SNORD26 /// SNORD27 /// SNORD28 /// SNORD29 /// SNORD31 / Fold change vs veh, SNHG1 /// SNORD22 /// SNORD25 /// SNORD26 /// SNORD27 /// SNORD28 /// SNORD29 /// SNORD31 / Fold change (Aza/veh), C12orf56 (ProbeSet 11735607_a_at) / Fold change (ACY-1035/veh), C12orf56 (ProbeSet 11735607_a_at) / Fold change (Aza/veh), FGFR1OP (ProbeSet 11751329_s_at) / Fold change (ACY-1035/veh), FGFR1OP (ProbeSet 11751329_s_at) / Fold change (Aza/veh), VPS36 (ProbeSet 11739960_a_at) / Fold change (ACY-1035/veh), VPS36 (ProbeSet 11739960_a_at) / RFU SYPL1 (11715823_x_at) / Fold change /veh SYPL1 (11715823_x_at) / RFU IGFBP7 (11715501_s_at) / Fold change /veh IGFBP7 (11715501_s_at) / RFU REEP3 (11722064_at) / Fold change /veh REEP3 (11722064_at) / RFU IGLL1 (11728026_x_at) / Fold change /veh IGLL1 (11728026_x_at): dose or concentration left out as unconfirmed
Conditions: ProbeSet 11749551_a_at; LIST B

`Nc1ncn([C@@H]2O[C@H](CO)[C@@H](O)[C@H]2O)c(=O)n1` [azacitidine] was tested. Which “RFU, RNGTT” value did it give?
Its value is 56.67 RFU.
